Test results from patent publication US20220370416A1, “COMPOUNDS AND METHODS FOR TARGETED DEGRADATION OF KRAS” (Arvinas Operations, Inc., priority 2020, published 2022).

Assays:
HiBit-KRAS^G12C [1] = target: T1, HiBit-KRAS^G12C (Homo sapiens, UniProt P01116, G12C); experiment: HiBit degradation assay in MiaPaCa-2 HiBit-KRas^G12C cells; type: cell-based; conditions: 0.5% DMSO, 24 hours; for DC50: read-out: KRas^G12C-HiBiT (MiaPaCa; 0.5% DMSO) IC50; for DC50 / KRas^G12C-HiBiT (MiaPaCa; 0.5% DMSO) DMax: MiaPaCa-2 HiBit-KRas^G12C cells; for Dmax: MIA PaCa-2, MiaPaCa-2 HiBit-KRas^G12C cells, read-out: KRas^G12C-HiBiT (MiaPaCa; 0.5% DMSO) DMax; for Dmax / KRas^G12C-HiBiT (MiaPaCa; 0.5% DMSO) DMax: maximum degradation
Summary of the method: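 MiaPaCa-2 cells with CRISPR N-terminal HiBit knock-in on one endogenous KRAS^G12C allele, treated 24 hours at 37° C with compound titrated 10 μM to 20 nM (0.1% or 0.5% DMSO). Lytic HiBit luminescence normalized to DMSO, 4-parameter fit giving DC50 and Dmax; points cytotoxic to […] cells by alamar blue excluded.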

HiBit-KRAS^G12C [2] = target: T1, HiBit-KRAS^G12C; experiment: HiBit degradation assay in SW1573 HiBit-KRas^G12C cells; type: cell-based; design: expressed in transfected cells; host or cells: SW1573 (clone E6), modified pcDNA3.1 vector, TK promoter; conditions: 0.5% DMSO, 24 hours; for DC50: read-out: KRas^G12C-HiBiT (SW1573; 0.5% DMSO) IC50***; for DC50 / KRas^G12C-HiBiT (SW1573; 0.5% DMSO) Dmax**: SW1573 HiBit-KRas^G12C; for Dmax: SW1573, SW1573 HiBit-KRas^G12C, read-out: KRas^G12C-HiBiT (SW1573; 0.5% DMSO) Dmax**
Summary of the method: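 SW1573 cells stably expressing N-terminally HiBit-tagged KRAS G12C, under the TK promoter, were treated 24 h at 37 °C with 10 μM to 20 nM compound in 0.1% or 0.5% DMSO. Residual HiBit luminescence normalised to DMSO and fitted with a 4-parameter model for DC50 and Dmax. Points with ≥50% viability loss (alamar blue) excluded.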

T1 sequence (P01116 1-186 isoform P01116-2 G12C limits assumed): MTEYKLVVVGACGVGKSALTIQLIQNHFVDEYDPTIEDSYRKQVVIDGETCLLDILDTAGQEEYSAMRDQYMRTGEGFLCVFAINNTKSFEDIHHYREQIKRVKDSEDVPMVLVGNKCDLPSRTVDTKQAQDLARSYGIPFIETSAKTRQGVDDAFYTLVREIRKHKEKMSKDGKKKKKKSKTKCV

Row | DC50 (HiBit-KRAS^G12C [1]) [nM] | DC50 (HiBit-KRAS^G12C [2]) [nM] | Dmax (HiBit-KRAS^G12C [1]) [%] | Dmax (HiBit-KRAS^G12C [2]) [%] | KRas^G12C-HiBiT (MiaPaCa; 0.5% DMSO) DMax (HiBit-KRAS^G12C [1]) | KRas^G12C-HiBiT (SW1573; 0.5% DMSO) Dmax** (HiBit-KRAS^G12C [2]) | Compound
1 | > 1000 | > 1000 |  |  |  |  | C=CC(=O)N1CCN(c2nc(OCCN3CCC(COc4cc([C@@H](C(=O)N5C[C@H](O)C[C@H]5C(=O)N[C@@H](C)c5ccc(-c6ccnn6C)cc5)C(C)C)on4)CC3)nc3c(F)c(-c4cc(O)cc5ccccc45)c(Cl)cc23)C[C@@H]1CC#N [Compound 159, (2S,4R)-1-[(2S)-2-[3-({1-[2-({6-chloro-4-[(3S)-3-(cyanomethyl)-4-(prop-2-enoyl)piperazin-1-yl]-8-fluoro-7-(3-hydroxynaphthalen-1-yl)quinazolin-2-yl}oxy)ethyl]piperidin-4-yl}methoxy)-1,2-oxazol-5-yl]-3-methylbutanoyl]-4-hydroxy-N-[(1S)-1-[4-(1-methyl-1H-pyrazol-5-yl)phenyl]ethyl]pyrrolidine-2-carboxamide]
2 | 100 to 1000 | > 1000 | < 35 |  |  |  | C=CC(=O)N1CCN(c2nc(OCCN3CCC(COc4cc([C@H](C(=O)N5C[C@H](O)C[C@H]5C(=O)N[C@@H](C)c5ccc(C#N)cc5)C(C)C)on4)CC3)nc3c(F)c(-c4cc(O)cc5ccccc45)c(Cl)cc23)C[C@@H]1CC#N [Compound 160, (2S,4R)-1-[(2R)-2-[3-({1-[2-({6-chloro-4-[(3S)-3-(cyanomethyl)-4-(prop-2-enoyl)piperazin-1-yl]-8-fluoro-7-(3-hydroxynaphthalen-1-yl)quinazolin-2-yl}oxy)ethyl]piperidin-4-yl}methoxy)-1,2-oxazol-5-yl]-3-methylbutanoyl]-N-[(1S)-1-(4-cyanophenyl)ethyl]-4-hydroxypyrrolidine-2-carboxamide]
3 | 100 to 1000 | < 100 | 35 to 70 | 35 to 70 |  |  | C=CC(=O)N1CCN(c2nc(OCCN3CCC(COc4cc([C@@H](C(=O)N5C[C@H](O)C[C@H]5C(=O)N[C@@H](C)c5ccc(C#N)cc5)C(C)C)on4)CC3)nc3c(F)c(-c4cc(O)cc5ccccc45)c(Cl)cc23)C[C@@H]1CC#N [Compound 161, (2S,4R)-1-[(2S)-2-[3-({1-[2-({6-chloro-4-[(3S)-3-(cyanomethyl)-4-(prop-2-enoyl)piperazin-1-yl]-8-fluoro-7-(3-hydroxynaphthalen-1-yl)quinazolin-2-yl}oxy)ethyl]piperidin-4-yl}methoxy)-1,2-oxazol-5-yl]-3-methylbutanoyl]-N-[(1S)-1-(4-cyanophenyl)ethyl]-4-hydroxypyrrolidine-2-carboxamide]
4 | > 1000 | 100 to 1000 | 35 to 70 | 35 to 70 |  |  | Cc1ncsc1-c1ccc([C@H](C)NC(=O)[C@@H]2C[C@@H](O)CN2C(=O)[C@@H](NC(=O)COCC2CCN(CCOc3nc(N4CCN(C(=O)/C=C/CN5CCOCC5)[C@@H](CC#N)C4)c4cc(Cl)c(-c5cc(O)cc6ccccc56)c(F)c4n3)CC2)C(C)(C)C)cc1 [Compound 164, (2S,4R)-1-[(2S)-2-[2-({1-[2-({6-chloro-4-[(3S)-3-(cyanomethyl)-4-[(2E)-4-(morpholin-4-yl)but-2-enoyl]piperazin-1-yl]-8-fluoro-7-(3-hydroxynaphthalen-1-yl)quinazolin-2-yl}oxy)ethyl]piperidin-4-yl}methoxy)acetamido]-3,3-dimethylbutanoyl]-4-hydroxy-N-[(1S)-1-[4-(4-methyl-1,3-thiazol-5-yl)phenyl]ethyl]pyrrolidine-2-carboxamide]
5 | > 1000 | 100 to 1000 | 35 to 70 | 35 to 70 |  |  | Cc1ncsc1-c1ccc([C@H](C)NC(=O)[C@@H]2C[C@@H](O)CN2C(=O)[C@@H](NC(=O)COCC2CCN(CCOc3nc(N4CCN(C(=O)/C=C/CN(C)C)[C@@H](CC#N)C4)c4cc(Cl)c(-c5cc(O)cc6ccccc56)c(F)c4n3)CC2)C(C)(C)C)cc1 [Compound 165, (2S,4R)-1-[(2S)-2-[2-({1-[2-({6-chloro-4-[(3S)-3-(cyanomethyl)-4-[(2E)-4-(dimethylamino)but-2-enoyl]piperazin-1-yl]-8-fluoro-7-(3-hydroxynaphthalen-1-yl)quinazolin-2-yl}oxy)ethyl]piperidin-4-yl}methoxy)acetamido]-3,3-dimethylbutanoyl]-4-hydroxy-N-[(1S)-1-[4-(4-methyl-1,3-thiazol-5-yl)phenyl]ethyl]pyrrolidine-2-carboxamide]
6 | 100 to 1000 | 100 to 1000 |  |  | A (A ≥ 70) | A (A ≥ 70) | C=C(F)C(=O)N1CCN(c2nc(OCCN3CCC(COc4cc([C@H](C(=O)N5C[C@H](O)C[C@H]5C(=O)N[C@@H](C)c5ccc(-c6scnc6C)cc5)C(C)C)on4)CC3)nc3c(F)c(-c4cc(O)cc5ccccc45)c(Cl)cc23)C[C@@H]1CC#N [Compound 168, (2S,4R)-1-[(2R)-2-[3-({1-[2-({6-chloro-4-[(3S)-3-(cyanomethyl)-4-(2-fluoroprop-2-enoyl)piperazin-1-yl]-8-fluoro-7-(3-hydroxynaphthalen-1-yl)quinazolin-2-yl}oxy)ethyl]piperidin-4-yl}methoxy)-1,2-oxazol-5-yl]-3-methylbutanoyl]-4-hydroxy-N-[(1S)-1-[4-(4-methyl-1,3-thiazol-5-yl)phenyl]ethyl]pyrrolidine-2-carboxamide]
7 | 100 to 1000 | < 100 |  |  | A (A ≥ 70) | A (A ≥ 70) | C=CC(=O)N1CCN(c2nc(OCCN3CCC(COc4cc([C@H](C(=O)N5C[C@H](O)C[C@H]5C(=O)N[C@@H](C)c5ccc(-c6scnc6C)cc5)C(C)C)on4)CC3)nc3c(F)c(-c4cc(O)cc5ccccc45)c(Cl)cc23)C[C@@H]1CC#N [Compound 169, (2S,4R)-1-[(2R)-2-[3-({1-[2-({6-chloro-4-[(3S)-3-(cyanomethyl)-4-(prop-2-enoyl)piperazin-1-yl]-8-fluoro-7-(3-hydroxynaphthalen-1-yl)quinazolin-2-yl}oxy)ethyl]piperidin-4-yl}methoxy)-1,2-oxazol-5-yl]-3-methylbutanoyl]-4-hydroxy-N-[(1S)-1-[4-(4-methyl-1,3-thiazol-5-yl)phenyl]ethyl]pyrrolidine-2-carboxamide]
8 | 100 to 1000 | 100 to 1000 | 35 to 70 | > 70 |  |  | C=C(F)C(=O)N1CCN(c2nc(OCCN3CCC(OCCOCC(=O)N[C@H](C(=O)N4C[C@H](O)C[C@H]4C(=O)N[C@@H](C)c4ccc(-c5scnc5C)cc4)C(C)(C)C)CC3)nc3c(F)c(-c4cc(O)cc5ccccc45)c(Cl)cc23)C[C@@H]1CC#N [Compound 170, (2S,4R)-1-[(2S)-2-{2-[2-({1-[2-({6-chloro-4-[(3S)-3-(cyanomethyl)-4-(2-fluoroprop-2-enoyl)piperazin-1-yl]-8-fluoro-7-(3-hydroxynaphthalen-1-yl)quinazolin-2-yl}oxy)ethyl]piperidin-4-yl}oxy)ethoxy]acetamido}-3,3-dimethylbutanoyl]-4-hydroxy-N-[(1S)-1-[4-(4-methyl-1,3-thiazol-5-yl)phenyl]ethyl]pyrrolidine-2-carboxamide]
9 | > 1000 | > 1000 |  |  |  |  | C=C(F)C(=O)N1CCN(c2nc(OCCN3CCC(COc4cc([C@@H](C(=O)N5C[C@H](O)C[C@H]5C(=O)N[C@@H](C)c5ccc(-c6scnc6C)cc5)C(C)C)on4)CC3)nc3c(F)c(-c4cc(O)cc5ccccc45)c(Cl)cc23)C[C@@H]1CC#N [Compound 171, (2S,4R)-1-[(2S)-2-[3-({1-[2-({6-chloro-4-[(3S)-3-(cyanomethyl)-4-(2-fluoroprop-2-enoyl)piperazin-l-yl]-8-fluoro-7-(3-hydroxynaphthalen-1-yl)quinazolin-2-yl}oxy)ethyl]piperidin-4-yl}methoxy)-1,2-oxazol-5-yl]-3-methylbutanoyl]-4-hydroxy-N-[(1S)-1-[4-(4-methyl-1,3-thiazol-5-yl)phenyl]ethyl]pyrrolidine-2-carboxamide]
10 | > 1000 | > 1000 |  |  |  |  | C=CC(=O)N1CCN(c2nc(OCCN3CCC(COc4cc([C@@H](C(=O)N5C[C@H](O)C[C@H]5C(=O)N[C@@H](C)c5ccc(-c6scnc6C)cc5)C(C)C)on4)CC3)nc3c(F)c(-c4cc(O)cc5ccccc45)c(Cl)cc23)C[C@@H]1CC#N [Compound 172, (2S,4R)-1-[(2S)-2-[3-({1-[2-({6-chloro-4-[(3S)-3-(cyanomethyl)-4-(prop-2-enoyl)piperazin-1-yl]-8-fluoro-7-(3-hydroxynaphthalen-1-yl)quinazolin-2-yl}oxy)ethyl]piperidin-4-yl}methoxy)-1,2-oxazol-5-yl]-3-methylbutanoyl]-4-hydroxy-N-[(1S)-1-[4-(4-methyl-1,3-thiazol-5-yl)phenyl]ethyl]pyrrolidine-2-carboxamide]
